Results as given in ChEMBL document CHEMBL5303573, “Mapping human microbiome drug metabolism by gut bacteria and their genes” (Nature, 2019).

Assay: The drug is tested on Bacteroides dorei strain: DSM17855 for biotransformation. The drug concentrations were measured before and after a 12-h incubation by liquid-chromatography-coupled mass spectrometry (LC–MS)
Conditions: phocaeicola dorei, 2 µM

Structure (SMILES)	Bacterial Biotransformation
C[C@]12C=CC(=O)C=C1CC[C@@H]1[C@@H]2C(=O)C[C@@]2(C)[C@H]1CC[C@]2(O)C(=O)CO [PREDNISONE]	Compound NOT metabolized
CCC(COC(=O)c1cc(OC)c(OC)c(OC)c1)(c1ccccc1)N(C)C.O=C(O)/C=C\C(=O)O (stereo not drawn)	Compound metabolized

Assay: The drug is tested on Bacteroides fragilis strain: HMW610 for biotransformation. The drug concentrations were measured before and after a 12-h incubation by liquid-chromatography-coupled mass spectrometry (LC–MS)
Conditions: 2 µM

Structure (SMILES)	Bacterial Biotransformation
C[C@]12C=CC(=O)C=C1CC[C@@H]1[C@@H]2C(=O)C[C@@]2(C)[C@H]1CC[C@]2(O)C(=O)CO [PREDNISONE]	Compound NOT metabolized
CCC(COC(=O)c1cc(OC)c(OC)c(OC)c1)(c1ccccc1)N(C)C.O=C(O)/C=C\C(=O)O (stereo not drawn)	Compound NOT metabolized

Assay: The drug is tested on Edwardsiella tarda strain: ATCC23685 for biotransformation. The drug concentrations were measured before and after a 12-h incubation by liquid-chromatography-coupled mass spectrometry (LC–MS)
Conditions: 2 µM

Structure (SMILES)	Bacterial Biotransformation
C[C@]12C=CC(=O)C=C1CC[C@@H]1[C@@H]2C(=O)C[C@@]2(C)[C@H]1CC[C@]2(O)C(=O)CO [PREDNISONE]	Compound NOT metabolized
CCC(COC(=O)c1cc(OC)c(OC)c(OC)c1)(c1ccccc1)N(C)C.O=C(O)/C=C\C(=O)O (stereo not drawn)	Compound metabolized

Conditions: bacteroides eggerthii, 12 h, 2 µM
Description: The drug is tested on Bacteroides eggerthii strain: DSM20697 for biotransformation. The drug concentrations were measured before and after a 12-h incubation by liquid-chromatography-coupled mass spectrometry (LC–MS)

Structure (SMILES)	Bacterial Biotransformation
C[C@]12C=CC(=O)C=C1CC[C@@H]1[C@@H]2C(=O)C[C@@]2(C)[C@H]1CC[C@]2(O)C(=O)CO [PREDNISONE]	Compound NOT metabolized
CCC(COC(=O)c1cc(OC)c(OC)c(OC)c1)(c1ccccc1)N(C)C.O=C(O)/C=C\C(=O)O (stereo not drawn)	Compound NOT metabolized

Assay: The drug is tested on Clostridium asparagiforme strain: DSM15981 for biotransformation. The drug concentrations were measured before and after a 12-h incubation by liquid-chromatography-coupled mass spectrometry (LC–MS)
Type: ADME
Set-up: dose 2 uM, timepoint 0 vs 12 hours
Conditions: enterocloster asparagiformis, 2 µM

Structure (SMILES)	Bacterial Biotransformation
C[C@]12C=CC(=O)C=C1CC[C@@H]1[C@@H]2C(=O)C[C@@]2(C)[C@H]1CC[C@]2(O)C(=O)CO [PREDNISONE]	Compound NOT metabolized
CCC(COC(=O)c1cc(OC)c(OC)c(OC)c1)(c1ccccc1)N(C)C.O=C(O)/C=C\C(=O)O (stereo not drawn)	Compound metabolized

Assay: The drug is tested on Collinsella intestinalis strain: DSM13280 for biotransformation. The drug concentrations were measured before and after a 12-h incubation by liquid-chromatography-coupled mass spectrometry (LC–MS)
Conditions: 2 µM

Structure (SMILES)	Bacterial Biotransformation
C[C@]12C=CC(=O)C=C1CC[C@@H]1[C@@H]2C(=O)C[C@@]2(C)[C@H]1CC[C@]2(O)C(=O)CO [PREDNISONE]	Compound NOT metabolized
CCC(COC(=O)c1cc(OC)c(OC)c(OC)c1)(c1ccccc1)N(C)C.O=C(O)/C=C\C(=O)O (stereo not drawn)	Compound metabolized

Assay: The drug is tested on Bacteroides coprophilus strain: DSM18228 for biotransformation. The drug concentrations were measured before and after a 12-h incubation by liquid-chromatography-coupled mass spectrometry (LC–MS)
Conditions: 2 µM

Structure (SMILES)	Bacterial Biotransformation
C[C@]12C=CC(=O)C=C1CC[C@@H]1[C@@H]2C(=O)C[C@@]2(C)[C@H]1CC[C@]2(O)C(=O)CO [PREDNISONE]	Compound NOT metabolized
CCC(COC(=O)c1cc(OC)c(OC)c(OC)c1)(c1ccccc1)N(C)C.O=C(O)/C=C\C(=O)O (stereo not drawn)	Compound metabolized

Assay: The drug is tested on Providencia stuartii strain: ATCC25827 for biotransformation. The drug concentrations were measured before and after a 12-h incubation by liquid-chromatography-coupled mass spectrometry (LC–MS)
Conditions: 2 µM

Structure (SMILES)	Bacterial Biotransformation
C[C@]12C=CC(=O)C=C1CC[C@@H]1[C@@H]2C(=O)C[C@@]2(C)[C@H]1CC[C@]2(O)C(=O)CO [PREDNISONE]	Compound NOT metabolized
CCC(COC(=O)c1cc(OC)c(OC)c(OC)c1)(c1ccccc1)N(C)C.O=C(O)/C=C\C(=O)O (stereo not drawn)	Compound NOT metabolized

Assay: The drug is tested on Anaerococcus hydrogenalis strain: DSM7454 for biotransformation. The drug concentrations were measured before and after a 12-h incubation by liquid-chromatography-coupled mass spectrometry (LC–MS)
Conditions: 2 µM

Structure (SMILES)	Bacterial Biotransformation
C[C@]12C=CC(=O)C=C1CC[C@@H]1[C@@H]2C(=O)C[C@@]2(C)[C@H]1CC[C@]2(O)C(=O)CO [PREDNISONE]	Compound NOT metabolized
CCC(COC(=O)c1cc(OC)c(OC)c(OC)c1)(c1ccccc1)N(C)C.O=C(O)/C=C\C(=O)O (stereo not drawn)	Compound metabolized

Assay: The drug is tested on Bifidobacterium longum subsp. Infantis strain: CCUG52486 for biotransformation. The drug concentrations were measured before and after a 12-h incubation by liquid-chromatography-coupled mass spectrometry (LC–MS)
Conditions: 2 µM

Structure (SMILES)	Bacterial Biotransformation
C[C@]12C=CC(=O)C=C1CC[C@@H]1[C@@H]2C(=O)C[C@@]2(C)[C@H]1CC[C@]2(O)C(=O)CO [PREDNISONE]	Compound NOT metabolized
CCC(COC(=O)c1cc(OC)c(OC)c(OC)c1)(c1ccccc1)N(C)C.O=C(O)/C=C\C(=O)O (stereo not drawn)	Compound metabolized

Conditions: enterocloster bolteae, 12 h, 2 µM
Description: The drug is tested on Clostridium bolteae strain: ATCCBAA-613 for biotransformation. The drug concentrations were measured before and after a 12-h incubation by liquid-chromatography-coupled mass spectrometry (LC–MS)

Structure (SMILES)	Bacterial Biotransformation
C[C@]12C=CC(=O)C=C1CC[C@@H]1[C@@H]2C(=O)C[C@@]2(C)[C@H]1CC[C@]2(O)C(=O)CO [PREDNISONE]	Compound NOT metabolized
CCC(COC(=O)c1cc(OC)c(OC)c(OC)c1)(c1ccccc1)N(C)C.O=C(O)/C=C\C(=O)O (stereo not drawn)	Compound metabolized

Assay: The drug is tested on Collinsella aerofaciens strain: ATCC25986 for biotransformation. The drug concentrations were measured before and after a 12-h incubation by liquid-chromatography-coupled mass spectrometry (LC–MS)
Conditions: 2 µM

Structure (SMILES)	Bacterial Biotransformation
C[C@]12C=CC(=O)C=C1CC[C@@H]1[C@@H]2C(=O)C[C@@]2(C)[C@H]1CC[C@]2(O)C(=O)CO [PREDNISONE]	Compound NOT metabolized

Assay: The drug is tested on Parabacteroides merdae strain: ATCC43184 for biotransformation. The drug concentrations were measured before and after a 12-h incubation by liquid-chromatography-coupled mass spectrometry (LC–MS)
Conditions: 2 µM

Structure (SMILES)	Bacterial Biotransformation
C[C@]12C=CC(=O)C=C1CC[C@@H]1[C@@H]2C(=O)C[C@@]2(C)[C@H]1CC[C@]2(O)C(=O)CO [PREDNISONE]	Compound NOT metabolized
CCC(COC(=O)c1cc(OC)c(OC)c(OC)c1)(c1ccccc1)N(C)C.O=C(O)/C=C\C(=O)O (stereo not drawn)	Compound metabolized

Assay: The drug is tested on Bacteroides sp. WH2 strain: WH2 for biotransformation. The drug concentrations were measured before and after a 12-h incubation by liquid-chromatography-coupled mass spectrometry (LC–MS)
Conditions: bacteroides sp. wh2, 12 h, 2 µM

Structure (SMILES)	Bacterial Biotransformation
C[C@]12C=CC(=O)C=C1CC[C@@H]1[C@@H]2C(=O)C[C@@]2(C)[C@H]1CC[C@]2(O)C(=O)CO [PREDNISONE]	Compound NOT metabolized
CCC(COC(=O)c1cc(OC)c(OC)c(OC)c1)(c1ccccc1)N(C)C.O=C(O)/C=C\C(=O)O (stereo not drawn)	Compound metabolized

Conditions: bacteroides intestinalis, 12 h, 2 µM
Description: The drug is tested on Bacteroides intestinalis strain: DSM17393 for biotransformation. The drug concentrations were measured before and after a 12-h incubation by liquid-chromatography-coupled mass spectrometry (LC–MS)

Structure (SMILES)	Bacterial Biotransformation
C[C@]12C=CC(=O)C=C1CC[C@@H]1[C@@H]2C(=O)C[C@@]2(C)[C@H]1CC[C@]2(O)C(=O)CO [PREDNISONE]	Compound NOT metabolized
CCC(COC(=O)c1cc(OC)c(OC)c(OC)c1)(c1ccccc1)N(C)C.O=C(O)/C=C\C(=O)O (stereo not drawn)	Compound metabolized

Conditions: limosilactobacillus reuteri cf48-3a, 12 h, 2 µM
Description: The drug is tested on Lactobacillus reuteri CF48-3A strain: BEI HM-102 for biotransformation. The drug concentrations were measured before and after a 12-h incubation by liquid-chromatography-coupled mass spectrometry (LC–MS)

Structure (SMILES)	Bacterial Biotransformation
C[C@]12C=CC(=O)C=C1CC[C@@H]1[C@@H]2C(=O)C[C@@]2(C)[C@H]1CC[C@]2(O)C(=O)CO [PREDNISONE]	Compound NOT metabolized
CCC(COC(=O)c1cc(OC)c(OC)c(OC)c1)(c1ccccc1)N(C)C.O=C(O)/C=C\C(=O)O (stereo not drawn)	Compound metabolized

Conditions: bacteroides stercoris, 12 h, 2 µM
Description: The drug is tested on Bacteroides stercoris strain: ATCC43183 for biotransformation. The drug concentrations were measured before and after a 12-h incubation by liquid-chromatography-coupled mass spectrometry (LC–MS)

Structure (SMILES)	Bacterial Biotransformation
CCC(COC(=O)c1cc(OC)c(OC)c(OC)c1)(c1ccccc1)N(C)C.O=C(O)/C=C\C(=O)O (stereo not drawn)	Compound metabolized

Conditions: bacteroides thetaiotaomicron, 12 h, 2 µM
Description: The drug is tested on Bacteroides thetaiotaomicron strain: 7330 for biotransformation. The drug concentrations were measured before and after a 12-h incubation by liquid-chromatography-coupled mass spectrometry (LC–MS)

Structure (SMILES)	Bacterial Biotransformation
C[C@]12C=CC(=O)C=C1CC[C@@H]1[C@@H]2C(=O)C[C@@]2(C)[C@H]1CC[C@]2(O)C(=O)CO [PREDNISONE]	Compound NOT metabolized
CCC(COC(=O)c1cc(OC)c(OC)c(OC)c1)(c1ccccc1)N(C)C.O=C(O)/C=C\C(=O)O (stereo not drawn)	Compound metabolized

Assay: The drug is tested on Bacteroides pectinophilus strain: ATCC43243 for biotransformation. The drug concentrations were measured before and after a 12-h incubation by liquid-chromatography-coupled mass spectrometry (LC–MS)
Conditions: 2 µM

Structure (SMILES)	Bacterial Biotransformation
C[C@]12C=CC(=O)C=C1CC[C@@H]1[C@@H]2C(=O)C[C@@]2(C)[C@H]1CC[C@]2(O)C(=O)CO [PREDNISONE]	Compound NOT metabolized
CCC(COC(=O)c1cc(OC)c(OC)c(OC)c1)(c1ccccc1)N(C)C.O=C(O)/C=C\C(=O)O (stereo not drawn)	Compound metabolized

Assay: The drug is tested on Ruminococcus gnavus strain: ATCC29149 for biotransformation. The drug concentrations were measured before and after a 12-h incubation by liquid-chromatography-coupled mass spectrometry (LC–MS)
Conditions: mediterraneibacter gnavus, 2 µM

Structure (SMILES)	Bacterial Biotransformation
C[C@]12C=CC(=O)C=C1CC[C@@H]1[C@@H]2C(=O)C[C@@]2(C)[C@H]1CC[C@]2(O)C(=O)CO [PREDNISONE]	Compound NOT metabolized
CCC(COC(=O)c1cc(OC)c(OC)c(OC)c1)(c1ccccc1)N(C)C.O=C(O)/C=C\C(=O)O (stereo not drawn)	Compound metabolized
